Laboratory results published in patent US10034475B2, “Treated biodiesel glycerin” (Auburn University, priority 2007, dated 2018).

Assays:
[1] = test system: reniform nematode Rotylenchulus reniformis; assay: Greenhouse pot test, soil drench, reniform nematode population in soil; assay type: in vivo; settings: 1 Kg infested soil per pot, drench in 100 mls; urea alone 150 mgs/Kg soil; NBG 1-5 mls/kg soil without urea
Protocol: The effect of neutralized bioglycerin (NBG), either in the presence or absence of organic nitrogen, was tested on the growth of cotton plants and parasitic nematodes. Neutralized bioglycerin (NBG) was applied at rates of 0, 1, 2, 3, 4, and 5 mls/kg soil either with or without urea (150 mgs/Kg soil of the compound to achieve about 70 mgs N/Kg soil). Applications were performed by drenching the soil in aqueous solution so that the final application volume per pot was 100 mls (which is equivalent to an acre inch of irrigation). Each pot contained 1 Kg of soil infested with the reniform nematode Rotylenchulus reniformis and there were 7 replications (pots)/treatment. Thus, for example, for the 1 ml NBG application there were 14 pots, 7 of which received each water up to 100 mls containing 1 ml NBG; the other 7 pots received each 1 ml NBG+150 mgs urea mixed in a final volume of 100 mls. The carbon:nitrogen ratios (C/N) of the combined treatments ranged from about 5.6 for the 1 ml NBG treatment to 28 for the 5 mls NBG treatment.

nematodes = settings: greenhouse and field experiments; cited from earlier work
fungi = settings: greenhouse and field experiments; cited from earlier work

SMILES	effect on reniform nematode numbers [1]	nematocidal activity (nematodes)	fungicidal activity (fungi)
NC(N)=O [Urea, urea]	suppressed	–	–
C=CC=O [acrolein, 2-propenal]	–	nematocidal	fungicidal
